Structures can show the parent of a compound that is named as a salt.
Experiments:
Assay type in all cases: biochemical
JAK1 = molecular target: T1, JAK1 (Homo sapiens, UniProt P23458); assay: JAK tyrosine kinase inhibitory activity in the presence of 1 mM ATP (ELISA), JAK1
T1 construct: purchased Carna Biosciences, Inc
In short: (§1)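 ELISA read-out: HRP-labelled anti-phosphotyrosine antibody with TMB, absorbance 450 nm, after 1 h kinase reaction at 30 °C in presence of 1 mM ATP. Kinase diluted to 7.5 nM (JAK1) or 0.75 nM (JAK2/JAK3) in Tris-HCl pH 7.5 buffer with DTT; compounds tested in duplicate.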

JAK2 = molecular target: T2, JAK2 (Homo sapiens, UniProt O60674); assay: JAK tyrosine kinase inhibitory activity in the presence of 1 mM ATP (ELISA), JAK2
T2 construct: purchased Carna Biosciences, Inc
T2 sequence (O60674 whole entry): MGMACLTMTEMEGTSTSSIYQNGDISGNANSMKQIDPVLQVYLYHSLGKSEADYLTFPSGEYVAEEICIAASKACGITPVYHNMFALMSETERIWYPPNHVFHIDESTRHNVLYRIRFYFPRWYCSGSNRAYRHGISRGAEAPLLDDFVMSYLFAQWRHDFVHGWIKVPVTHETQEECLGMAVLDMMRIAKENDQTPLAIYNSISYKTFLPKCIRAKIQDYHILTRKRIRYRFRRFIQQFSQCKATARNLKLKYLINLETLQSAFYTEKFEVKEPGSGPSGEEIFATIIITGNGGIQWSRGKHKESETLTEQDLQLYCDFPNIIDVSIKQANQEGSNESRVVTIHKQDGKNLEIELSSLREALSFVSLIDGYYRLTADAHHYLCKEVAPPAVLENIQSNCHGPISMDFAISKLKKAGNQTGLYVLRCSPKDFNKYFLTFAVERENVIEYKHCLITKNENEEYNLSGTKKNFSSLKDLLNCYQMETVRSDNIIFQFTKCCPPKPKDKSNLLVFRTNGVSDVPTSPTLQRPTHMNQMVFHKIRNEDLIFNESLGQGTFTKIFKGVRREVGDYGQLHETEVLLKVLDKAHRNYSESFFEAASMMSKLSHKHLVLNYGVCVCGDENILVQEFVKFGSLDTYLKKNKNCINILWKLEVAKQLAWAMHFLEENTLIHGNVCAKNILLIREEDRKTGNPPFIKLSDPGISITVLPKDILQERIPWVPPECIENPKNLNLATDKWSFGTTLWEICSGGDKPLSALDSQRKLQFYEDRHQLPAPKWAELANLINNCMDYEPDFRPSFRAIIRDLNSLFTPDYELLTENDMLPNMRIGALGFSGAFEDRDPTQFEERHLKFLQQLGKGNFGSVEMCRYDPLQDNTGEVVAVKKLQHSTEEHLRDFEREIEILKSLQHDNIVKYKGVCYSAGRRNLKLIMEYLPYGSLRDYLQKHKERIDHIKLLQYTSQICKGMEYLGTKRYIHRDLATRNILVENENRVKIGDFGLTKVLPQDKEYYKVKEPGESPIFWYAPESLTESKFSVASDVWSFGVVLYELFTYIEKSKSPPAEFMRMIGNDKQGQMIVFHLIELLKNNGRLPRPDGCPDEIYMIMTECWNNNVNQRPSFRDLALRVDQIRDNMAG
In short: as §1

JAK3 = molecular target: T3, JAK3 (Homo sapiens, UniProt P52333); assay: JAK tyrosine kinase inhibitory activity in the presence of 1 mM ATP (ELISA), JAK3
T3 construct: purchased Carna Biosciences, Inc
T3 sequence (P52333 1-1124): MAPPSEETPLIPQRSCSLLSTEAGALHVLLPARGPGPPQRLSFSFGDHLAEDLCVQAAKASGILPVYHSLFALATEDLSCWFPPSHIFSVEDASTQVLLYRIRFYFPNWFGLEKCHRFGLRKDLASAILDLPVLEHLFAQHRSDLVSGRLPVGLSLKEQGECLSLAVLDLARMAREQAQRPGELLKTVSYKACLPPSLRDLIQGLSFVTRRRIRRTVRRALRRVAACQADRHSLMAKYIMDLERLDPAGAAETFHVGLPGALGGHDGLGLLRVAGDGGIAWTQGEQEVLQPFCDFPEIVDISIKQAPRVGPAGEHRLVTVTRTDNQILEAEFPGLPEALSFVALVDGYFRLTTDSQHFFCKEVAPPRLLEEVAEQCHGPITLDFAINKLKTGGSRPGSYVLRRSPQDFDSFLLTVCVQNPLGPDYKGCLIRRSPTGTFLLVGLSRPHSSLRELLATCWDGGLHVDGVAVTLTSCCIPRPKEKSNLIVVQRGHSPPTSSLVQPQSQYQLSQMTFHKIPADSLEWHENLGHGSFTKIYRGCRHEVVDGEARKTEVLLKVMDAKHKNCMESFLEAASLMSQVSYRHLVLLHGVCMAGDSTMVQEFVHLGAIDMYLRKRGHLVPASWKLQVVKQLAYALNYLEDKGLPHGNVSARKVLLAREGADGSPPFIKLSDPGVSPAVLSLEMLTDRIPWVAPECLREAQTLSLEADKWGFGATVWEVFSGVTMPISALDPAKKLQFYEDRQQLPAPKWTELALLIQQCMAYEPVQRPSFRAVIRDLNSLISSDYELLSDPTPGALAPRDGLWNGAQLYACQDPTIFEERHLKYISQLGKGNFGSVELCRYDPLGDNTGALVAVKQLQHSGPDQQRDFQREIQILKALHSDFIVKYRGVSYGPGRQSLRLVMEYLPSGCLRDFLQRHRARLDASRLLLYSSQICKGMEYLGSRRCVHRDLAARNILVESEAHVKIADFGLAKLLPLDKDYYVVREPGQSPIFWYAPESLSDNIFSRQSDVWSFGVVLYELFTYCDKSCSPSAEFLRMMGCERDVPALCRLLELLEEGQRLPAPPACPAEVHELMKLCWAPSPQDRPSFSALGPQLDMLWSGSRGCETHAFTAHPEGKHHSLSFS
In short: as §1

T1 sequence (P23458 whole entry): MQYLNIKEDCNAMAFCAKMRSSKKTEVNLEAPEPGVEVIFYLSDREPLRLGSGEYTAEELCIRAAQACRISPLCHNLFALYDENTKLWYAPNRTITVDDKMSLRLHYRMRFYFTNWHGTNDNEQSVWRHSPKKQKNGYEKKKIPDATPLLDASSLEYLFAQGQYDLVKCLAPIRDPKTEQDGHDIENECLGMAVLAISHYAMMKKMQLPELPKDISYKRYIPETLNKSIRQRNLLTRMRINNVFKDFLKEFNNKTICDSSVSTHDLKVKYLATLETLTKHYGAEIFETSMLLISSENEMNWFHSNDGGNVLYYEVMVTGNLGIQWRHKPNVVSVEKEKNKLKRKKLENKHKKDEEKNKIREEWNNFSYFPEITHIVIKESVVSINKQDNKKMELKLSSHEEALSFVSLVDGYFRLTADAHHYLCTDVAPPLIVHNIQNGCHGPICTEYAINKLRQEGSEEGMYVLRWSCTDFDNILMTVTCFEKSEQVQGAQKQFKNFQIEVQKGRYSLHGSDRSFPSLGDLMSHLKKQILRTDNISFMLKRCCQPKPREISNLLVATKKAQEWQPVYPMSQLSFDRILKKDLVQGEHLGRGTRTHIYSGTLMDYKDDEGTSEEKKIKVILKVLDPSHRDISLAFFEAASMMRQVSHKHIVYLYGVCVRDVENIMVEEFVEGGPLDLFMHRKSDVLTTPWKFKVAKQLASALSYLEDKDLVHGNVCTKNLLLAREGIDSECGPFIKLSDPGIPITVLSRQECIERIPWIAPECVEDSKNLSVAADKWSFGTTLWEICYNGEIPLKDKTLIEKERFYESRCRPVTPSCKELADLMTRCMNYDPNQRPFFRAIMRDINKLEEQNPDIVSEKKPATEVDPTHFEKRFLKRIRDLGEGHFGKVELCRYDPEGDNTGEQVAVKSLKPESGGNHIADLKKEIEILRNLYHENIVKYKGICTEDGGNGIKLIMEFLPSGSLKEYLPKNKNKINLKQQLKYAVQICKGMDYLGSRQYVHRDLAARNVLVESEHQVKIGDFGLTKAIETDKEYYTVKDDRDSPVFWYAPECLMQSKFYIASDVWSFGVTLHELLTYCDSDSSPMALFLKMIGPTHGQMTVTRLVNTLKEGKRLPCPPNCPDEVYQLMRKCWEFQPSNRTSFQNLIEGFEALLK

Compound	IC50 (JAK1) [nM]	IC50 (JAK2) [nM]	IC50 (JAK3) [nM]
Cc1c(N[C@@H](C)C2CC2)nc(-c2cnn3ccsc23)nc1C(=O)N1CCC(NC(=O)C(F)F)CC1 [Example 18, N-(1-{[6-{[(1S)-1-Cyclopropylethyl]amino}-5-methyl-2-(pyrazolo[5,1-b][1,3]thiazol-7-yl)pyrimidin-4-yl]carbonyl}piperidin-4-yl)-2,2-difluoroacetamide]	310	2300	1700
CC(C)(C)Nc1cc(C(=O)N2CCC(NC(=O)C3CC3)CC2)nc(-c2cnn3ccsc23)n1 [Example 36, N-(1-{[6-(tert-Butylamino)-2-(pyrazolo[5,1-b][1,3]thiazol-7-yl)pyrimidin-4-yl]carbonyl}piperidin-4-yl)cyclopropanecarboxamide]	86	620	> 10000
CC(C)(C)Nc1cc(C(=O)N2CCC(NC(=O)OC3CC3)CC2)nc(-c2cnn3ccsc23)n1 [Example 135, Cyclopropyl (1-{[6-(tert-butylamino)-2-(pyrazolo[5,1-b][1,3]thiazol-7-yl)pyrimidin-4-yl]carbonyl}piperidin-4-yl)carbamate]	68	2400	3700
COC(=O)NC1CCN(C(=O)c2cc(OCC3CN(C(=O)OC(C)(C)C)C3)nc(-c3cnn4ccsc34)n2)CC1 [Example 164, Tert-butyl 3-([6-4-[(methoxycarbonyl)amino]piperidine-1-carbonyl-2-(pyrazolo[5,1-b][1,3]thiazol-7-yl)pyrimidin-4-yl]oxymethyl)azetidine-1-carboxylate]	2600	> 10000	> 10000
CCC(CC)Nc1cc(C(=O)N2CCC(NC(=O)C3CC3)CC2)nc(-c2cnn3ccsc23)n1 [Example 124, N-(1-{[6-(Pentan-3-ylamino)-2-(pyrazolo[5,1-b][1,3]thiazol-7-yl)pyrimidin-4-yl]carbonyl}piperidin-4-yl)cyclopropanecarboxamide]	220	1700	2200
CS(=O)(=O)N1CCC(Nc2cc(C(=O)N3CCC(NC(=O)C4CC4)CC3)nc(-c3cnn4ccsc34)n2)CC1 [Example 189, N-1-[6-[1-(methanesulfonyl)piperidin-4-yl]amino-2-(pyrazolo[5,1-b][1,3]thiazol-7-yl)pyrimidine-4-carbonyl]piperidin-4-ylcyclopropanecarboxamide]	1100	> 10000	> 10000
CC(C)(C)CNc1cc(C(=O)N2CCC(NC(=O)C3CC3)CC2)nc(-c2cnn3ccsc23)n1 [Example 15, N-[1-({6-[(2,2-Dimethylpropyl)amino]-2-(pyrazolo[5,1-b][1,3]thiazol-7-yl)pyrimidin-4-yl}carbonyl)piperidin-4-yl]cyclopropanecarboxamide]	110	2500	7200
CCC(=O)NC1CCN(C(=O)c2cc(N[C@@H]3CCN(C(=O)CC#N)C3)nc(-c3cnn4ccsc34)n2)CC1 [Example 202, N-1-[6-[(3R)-1-(cyanoacetyl)pyrrolidin-3-yl]amino-2-(pyrazolo[5,1-b][1,3]thiazol-7-yl)pyrimidine-4-carbonyl]piperidin-4-ylpropanamide]	300	> 10000	> 10000
C[C@H](Nc1cc(C(=O)N2CCC(NC(=O)c3ccccn3)CC2)nc(-c2cnn3ccsc23)n1)C1CC1 [Example 185, N-1-[6-[(1S)-1-cyclopropylethyl]amino-2-(pyrazolo[5,1-b][1,3]thiazol 7 yl)pyrimidine-4-carbonyl]piperidin-4-ylpyridine-2-carboxamide]	190	> 10000	810
O=C(NC1CCN(C(=O)c2cc(NCC3(COC(F)F)CCC3)nc(-c3cnn4ccsc34)n2)CC1)C1CC1 [Example 9, N-[1-({6-[({1-[(Difluoromethoxy)methyl]cyclobutyl}methyl)amino]-2-(pyrazolo[5,1-b][1,3]thiazol-7-yl)pyrimidin-4-yl}carbonyl)piperidin-4-yl]cyclopropanecarboxamide]	19	960	2000

Further lines, results first:

IC50 (JAK1) [nM]	IC50 (JAK2) [nM]	IC50 (JAK3) [nM]	Compound
790	> 10000	> 10000	COC(=O)NC1CCN(C(=O)c2cc(N(C)C(C)(C)C)nc(-c3cnn4ccsc34)n2)CC1 [Example 132, Methyl [1-({6-[tert-butyl(methyl)amino]-2-(pyrazolo[5,1-b][1,3]thiazol-7-yl)pyrimidin-4-yl}carbonyl)piperidin-4-yl]carbamate hydrochloride]
870	3300	> 10000	CC(C)C(=O)NC1CCN(C(=O)c2cc(N[C@H](C)c3ccc(F)cc3)nc(-c3cnn4ccsc34)n2)CC1 [Example 79, N-(1-{[6-{[(1R)-1-(4-Fluorophenyl)ethyl]amino}-2-(pyrazolo[5,1-b][1,3]thiazol-7-yl)pyrimidin-4-yl]carbonyl}piperidin-4-yl)-2-methylpropanamide]
400	2400	1600	CC(=O)NC1CCN(C(=O)c2nc(-c3cnn4ccsc34)nc(N[C@@H](C)C3CC3)c2C)CC1 [Example 13, N-(1-{[6-{[(1S)-1-Cyclopropylethyl]amino}-5-methyl-2-(pyrazolo[5,1-b][1,3]thiazol-7-yl)pyrimidin-4-yl]carbonyl}piperidin-4-yl)acetamide]
2900	> 10000	> 10000	CCN(c1cc(C(=O)N2CCC(O)CC2)nc(-c2cnn3ccsc23)n1)C(C)(C)C [Example 133, {6-[tert-Butyl(ethyl)amino]-2-(pyrazolo[5,1-b][1,3]thiazol-7-yl)pyrimidin-4-yl}(4-hydroxypiperidin-1-yl)methanone]
24	4600	1400	CCOc1c(N[C@H](C)C(C)(C)C)nc(-c2cnn3ccsc23)nc1C(=O)N1CCC(NC(=O)OC)CC1 [Example 155, Methyl (1-{[6-{[(2R)-3,3-dimethylbutan-2-yl]amino}-5-ethoxy-2-(pyrazolo[5,1 b][1,3]thiazol 7-yl)pyrimidin-4-yl]carbonyl}piperidin-4-yl)carbamate]
310	9000	4900	CCCCCCC(=O)NC1CCN(C(=O)c2cc(N[C@H](C)C(C)(C)C)nc(-c3cnn4ccsc34)n2)CC1 [Example 195, N-1-[6-[(2R)-3,3-dimethylbutan-2-yl]amino-2-(pyrazolo[5,1-b][1,3]thiazol-7-yl)pyrimidine-4-carbonyl]piperidin-4-ylheptanamide]
140	1300	2900	COC(=O)NC1CCN(C(=O)c2cc(N[C@H](C)C(C)(C)C)nc(-c3cnn4ccsc34)n2)CC1 [Example 39, Methyl (1-{[6-{[(2R)-3,3-dimethylbutan-2-yl]amino}-2-(pyrazolo[5,1-b][1,3]thiazol-7-yl)pyrimidin-4-yl]carbonyl}piperidin-4-yl)carbamate]
150	930	4800	CC(C)(C)Nc1cc(C(=O)N2CCC(Nc3nccs3)CC2)nc(-c2cnn3ccsc23)n1 [Example 75, [6-(tert-Butylamino)-2-(pyrazolo[5,1-b][1,3]thiazol-7-yl)pyrimidin-4-yl][4-(1,3-thiazol-2-ylamino)piperidin-1-yl]methanone]
120	2400	> 10000	CCC(CC)Oc1cc(C(=O)N2CCC(NC(=O)C3CC3)CC2)nc(-c2cnn3ccsc23)n1 [Example 111, N-(1-{[6-(Pentan-3-yloxy)-2-(pyrazolo[5,1-b][1,3]thiazol-7-yl)pyrimidin-4-yl]carbonyl}piperidin-4-yl)cyclopropanecarboxamide]
260	3100	> 10000	COC(=O)NC1CCN(C(=O)c2cc(OC(C)C(C)(C)C)nc(-c3cnn4ccsc34)n2)CC1 (stereo not drawn) [Example 64, Methyl [1-({6-[(3,3-dimethylbutan-2-yl)oxy]-2-(pyrazolo[5,1-b][1,3]thiazol-7-yl)pyrimidin-4-yl}carbonyl)piperidin-4-yl]carbamate]
